Assay results from patent US11753407B2, “Compounds for treating spinal muscular atrophy” (PTC Therapeutics, Inc., priority 2012, dated 2023).

Tests used:
[1] = system: SMN2 minigene mRNA (SMN2-A minigene) in HEK293H cells; assay: SMN2 minigene mRNA splicing RT-qPCR assay in cultured cells; assay type: cell-based, human; settings: Homo sapiens, HEK293-H; concentration increasing full length SMN2 mRNA 1.5-fold relative to vehicle-treated cells; HEK293H cells with SMN2-A minigene, 24 hours, 7-point concentration data; read-out: EC1.5x for production of full length SMN2 mRNA
How it was run: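 HEK293H cells stably carrying SMN2-A minigene treated with compounds (7-point, 3.16-fold dilutions, duplicates) for 24 h at 37 °C. Full-length exon 7-containing minigene mRNA measured by multiplex RT-qPCR with GAPDH, normalized and expressed relative to vehicle (modified ΔΔCt); EC1.5× is concentration giving 1.5-fold increase.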

[2] = system: Smn protein in SMA patient fibroblast cells (GM03813); assay: Smn protein assay in cultured cells (SMN HTRF); assay type: cell-based, human; settings: SMA patient fibroblast cells, 48 hours; for maximum fold (Fold) increase of Smn protein: 7-point concentration data, fold relative to vehicle control; for EC1.5x for Smn protein expression: 7-point concentration curve, SMN HTRF, concentration producing 1.5 times Smn protein vs DMSO vehicle control
How it was run: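 SMA patient fibroblasts (5,000/well, DMEM-10% FBS) treated 48 h at 37° C with 7-point, 3.16-fold compound series in triplicate; lysates read by SMN HTRF (665/620 nm ratio). Fold Smn increase over DMSO vehicle derived; EC1.5× is concentration giving 1.5-fold Smn, with maximum fold also reported.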

SMILES | EC (1.5-fold increase) [1] [µM] | maximum fold (Fold) increase of Smn protein [2] | melting point [°C] | EC1.5x for Smn protein expression [2]
COc1ccc(-c2cc(=O)n3cc(N4CCNCC4)ccc3n2)cc1C [Compound 149, 2-(4-methoxy-3-methylphenyl)-7-(piperazin-1-yl)-4H-pyrido[1,2-a]pyrimidin-4-one] | 0.3 to 1 | ** (a fold increase between >1.2 and ≤1.35 is indicated by two stars (**)) | 198 to 203 | 
N#Cc1cccc(-c2cc(=O)n3cc(N4CCNCC4)ccc3n2)c1 [Compound 150, 3-[4-oxo-7-(piperazin-1-yl)-4H-pyrido[1,2-a]pyrimidin-2-yl]benzonitrile] | 0.3 to 1 | **** (a fold increase between >1.5 and ≤1.65 is indicated by four stars (****)) | 224 to 231 | ** (an EC1.5× between >1 μM and ≤3 μM is indicated by two stars (**))
COc1ccc(-c2cc(=O)n3cc(N4CCNCC4)ccc3n2)cc1C#N [Compound 151, 2-methoxy-5-[4-oxo-7-(piperazin-1-yl)-4H-pyrido[1,2-a]pyrimidin-2-yl]benzonitrile] | 0.1 to 0.3 | *** (a fold increase between >1.35 and ≤1.5 is indicated by three stars (***)) | 191 to 197 | 
O=c1cc(-c2ccc(O)c(F)c2)nc2ccc(N3CCNCC3)cn12 [Compound 152, 2-(3-fluoro-4-hydroxyphenyl)-7-(piperazin-1-yl)-4H-pyrido[1,2-a]pyrimidin-4-one] | 0.1 to 0.3 | ***** (a fold increase >1.65 is indicated by five stars (*****)) | 259 to 266 | **** (an EC1.5x≤0.3 μM is indicated by four stars (****))
O=c1cc(-c2ccc(OCC(F)(F)F)c(F)c2)nc2ccc(N3CCNCC3)cn12 [Compound 154, 2-[3-fluoro-4-(2,2,2-trifluoroethoxy)phenyl]-7-(piperazin-1-yl)-4H-pyrido[1,2-a]pyrimidin-4-one] | 1 to 3 | * (A maximum fold increase of ≤1.2 is indicated by one star (*)) | 198 to 201 | 
Cc1nc2cc(-c3cc(=O)n4cc(N5CCNCC5)ccc4n3)ccc2o1 [Compound 155, 2-(2-methyl-1,3-benzoxazol-5-yl)-7-(piperazin-1-yl)-4H-pyrido[1,2-a]pyrimidin-4-one] | 0.1 to 0.3 | ** (a fold increase between >1.2 and ≤1.35 is indicated by two stars (**)) | 178 to 183 | 
Cc1ccc(-c2cc(=O)n3cc(N4CCNCC4)ccc3n2)cc1F [Compound 157, 2-(3-fluoro-4-methylphenyl)-7-(piperazin-1-yl)-4H-pyrido[1,2-a]pyrimidin-4-one] | 1 to 3 | ** (a fold increase between >1.2 and ≤1.35 is indicated by two stars (**)) | 174 to 176 | 
Cc1ccc(-c2cc(=O)n3cc(N4CCN[C@@H](C)C4)ccc3n2)cc1F [Compound 158, 2-(3-fluoro-4-methylphenyl)-7-[(3S)-3-methylpiperazin-1-yl]-4H-pyrido[1,2-a]pyrimidin-4-one] | 1 to 3 | * (A maximum fold increase of ≤1.2 is indicated by one star (*)) | 175 to 178 | 
COc1ccc(-c2cc(=O)n3cc(N4CC[C@H](N)C4)ccc3n2)cc1OC [Compound 159, 7-[(3S)-3-aminopyrrolidin-1-yl]-2-(3,4-dimethoxyphenyl)-4H-pyrido[1,2-a]pyrimidin-4-one] | 1 to 3 | *** (a fold increase between >1.35 and ≤1.5 is indicated by three stars (***)) | 148 to 151 | 
Cc1nc2cc(-c3cc(=O)n4cc(N5CCCNCC5)ccc4n3)ccc2s1 [Compound 161, 7-(1,4-diazepan-1-yl)-2-(2-methyl-1,3-benzothiazol-5-yl)-4H-pyrido[1,2-a]pyrimidin-4-one] | 0.3 to 1 | *** (a fold increase between >1.35 and ≤1.5 is indicated by three stars (***)) | 208 to 212 | ** (an EC1.5× between >1 μM and ≤3 μM is indicated by two stars (**))
Cc1csc(-c2cc(=O)n3cc(N4CCN[C@@H](C)C4)ccc3n2)n1 [Compound 162, 7-[(3S)-3-methylpiperazin-1-yl]-2-(4-methyl-1,3-thiazol-2-yl)-4H-pyrido[1,2-a]pyrimidin-4-one] | 0.3 to 1 | **** (a fold increase between >1.5 and ≤1.65 is indicated by four stars (****)) | 225 to 230 | ** (an EC1.5× between >1 μM and ≤3 μM is indicated by two stars (**))
COc1ccc(-c2cc(=O)n3cc(N4CC[C@H](NC(C)C)C4)ccc3n2)cc1OC [Compound 165, 2-(3,4-dimethoxyphenyl)-7-[(3S)-3-(propan-2-ylamino)pyrrolidin-1-yl]-4H-pyrido[1,2-a]pyrimidin-4-one] | 1 to 3 | ** (a fold increase between >1.2 and ≤1.35 is indicated by two stars (**)) | 169 to 172 | 
COc1ccc(-c2cc(=O)n3cc(N4CCCN(C)CC4)ccc3n2)cc1F [Compound 166, 2-(3-fluoro-4-methoxyphenyl)-7-(4-methyl-1,4-diazepan-1-yl)-4H-pyrido[1,2-a]pyrimidin-4-one] | 0.3 to 1 | ** (a fold increase between >1.2 and ≤1.35 is indicated by two stars (**)) | 176 to 178 | 
COc1ccc(-c2cc(=O)n3cc(N4CCNCC4)ccc3n2)cc1[N+](=O)[O-] [Compound 167, 2-(4-methoxy-3-nitrophenyl)-7-(piperazin-1-yl)-4H-pyrido[1,2-a]pyrimidin-4-one] | < 0.1 | *** (a fold increase between >1.35 and ≤1.5 is indicated by three stars (***)) | 183 to 187 | ** (an EC1.5× between >1 μM and ≤3 μM is indicated by two stars (**))
CSc1ccc(-c2cc(=O)n3cc(N4CCNCC4)ccc3n2)cc1F [Compound 168, 2-[3-fluoro-4-(methylsulfanyl)phenyl]-7-(piperazin-1-yl)-4H-pyrido[1,2-a]pyrimidin-4-one] | 0.3 to 1 | * (A maximum fold increase of ≤1.2 is indicated by one star (*)) | 174 to 176 | 
Cc1cn2cc(-c3cc(=O)n4cc(N5CCCN(C)CC5)ccc4n3)ccc2n1 [Compound 169, 7-(4-methyl-1,4-diazepan-1-yl)-2-(2-methylimidazo[1,2-a]pyridin-6-yl)-4H-pyrido[1,2-a]pyrimidin-4-one] | < 0.1 | **** (a fold increase between >1.5 and ≤1.65 is indicated by four stars (****)) | 208 to 213 | **** (an EC1.5x≤0.3 μM is indicated by four stars (****))
Cc1nc2ccc(-c3cc(=O)n4cc(N5C[C@@H](C)N[C@@H](C)C5)ccc4n3)cc2o1 [Compound 172, 7-[(3R,5S)-3,5-dimethylpiperazin-1-yl]-2-(2-methyl-1,3-benzoxazol-6-yl)-4H-pyrido[1,2-a]pyrimidin-4-one] | < 0.1 | ***** (a fold increase >1.65 is indicated by five stars (*****)) | 233 to 235 | **** (an EC1.5x≤0.3 μM is indicated by four stars (****))
COc1ncc(-c2cc(=O)n3cc(N4CCN[C@@H](C)C4)ccc3n2)cc1F [Compound 173, 2-(5-fluoro-6-methoxypyridin-3-yl)-7-[(3S)-3-methylpiperazin-1-yl]-4H-pyrido[1,2-a]pyrimidin-4-one] | 0.3 to 1 | ** (a fold increase between >1.2 and ≤1.35 is indicated by two stars (**)) | 175 to 180 | 
COc1ncc(-c2cc(=O)n3cc(N4C[C@@H](C)N[C@@H](C)C4)ccc3n2)cc1F [Compound 174, 7-[(3R,5S)-3,5-dimethylpiperazin-1-yl]-2-(5-fluoro-6-methoxypyridin-3-yl)-4H-pyrido[1,2-a]pyrimidin-4-one] | 1 to 3 | ** (a fold increase between >1.2 and ≤1.35 is indicated by two stars (**)) | 160 to 165 | 
Cc1nc2cc(-c3cc(=O)n4cc(N5C[C@@H](C)N[C@@H](C)C5)ccc4n3)ccc2s1 [Compound 175, 7-[(3R,5S)-3,5-dimethylpiperazin-1-yl]-2-(2-methyl-1,3-benzothiazol-5-yl)-4H-pyrido[1,2-a]pyrimidin-4-one] | < 0.1 | **** (a fold increase between >1.5 and ≤1.65 is indicated by four stars (****)) | 208 to 212 | *** (an EC1.5× between >0.3 μM and ≤1 μM is indicated by three stars (***))
